# According to patent US11174177B2, “Systems and methods for controlling aquatic pests with sulfurous acid” (priority 2017, dated 2021):
# Experiments:
# clams = conditions: sulfuric acid and low pH, previously found; cited from earlier work
# bryozoa = assay: Open-water pond treatment, mortality of bryozoa; format: in vivo
# Description: (§1) Applicant have performed studies and determined that the present water treatment methods with sulfurous acid provide about 100% kill of bryozoa in 48 hours, 100% kill of zebra mussels in 5 days, and 100% kill of Asiatic clams in less than one month. In these studies, the protocols introduced sulfurous acid into open water to achieve water pH levels between 6.0 and 6.5 in the treatment water within a control distance from the location of introduction. Accordingly, these pH ranges are sufficient to control these aquatic species. This allows these relatively higher pH ranges to control the aquatic species without compromising the body of water. The cyanobacteria can have a 100% kill from the sulfurous acid with a pH of the treated water between 6-7, or more preferably between 6.8-7.
# (§2) In view of the disclosure provided herein, it is now possible to achieve about 100% kill rates on these aquatic pest species in any size body of water at ambient temperature and pressure. The water treatment is performed through the addition of sufficient sulfurous acid (as well as any sulfites and bisulfites in the sulfurous acid) so as to reduce pH between about 6.0-about 6.5 over hours to days to weeks. […] The mortality of each aquatic pest was measured progressively over time until all the aquatic pests in the pond were determined to be dead or at a level so low as to be unmeasurable.
# zebra mussels = assay: Open-water pond treatment, mortality of zebra mussels; format: in vivo
# Description: as §1, §2
# Asiatic clams = assay: Open-water pond treatment, mortality of Asiatic clams; format: in vivo
# Description: as §1, §2
# cyanobacteria = assay: Treatment of Daybreak reservoirs infested with cyanobacteria; format: in vivo
# Source text: (§3) As a control, Jordan Canal water, which was infected with cyanobacteria from Utah Lake, is directed to Daybreak and other areas. While treatment controlled cyanobacteria in Daybreak reservoirs, other areas that receive water from the Jordan Canal were still testing positive for cyanobacteria. As such, the treatment of sulfurous acid controlled the cyanobacteria in view of water ways further away (e.g., Blackridge Reservoir, Jordan River Narrows, and Wheeler Farm East Canal) still containing cyanobacteria. […] Since cyanobacteria are harmful to fish, the sulfurous acid actually improves the health of fish in the treated water.
# anatoxin-a = assay: Cyanotoxin in treated Daybreak reservoirs; parameters: species or system cyanobacteria; conditions: Daybreak reservoirs (surge pond), pH maintained between 6.8-7
# Source text: as §3
# fish or other animals = format: in vivo; conditions: Daybreak reservoirs, pH maintained between 6.8-7
# Source text: as §3
# algae = assay: Removal of algae from treated water; format: in vivo; conditions: pH 6.5
# Source text: In one example, pH 6.5 removed algae in 15 days.
# aquatic pests = assay: Water treatment, control of aquatic pests in general; format: in vivo
# Source text: Thus, sulfurous acid can be used to treat water to control existing aquatic pest as well as condition the water to inhibit spreading of any aquatic pests introduced therein. This can inhibit spreading from a first body of water to a second body of water, such as from a pond to a stream or from a stream into a pond. While providing the sulfurous acid prohibits or prevents aquatic pest infestations or can be used as a prophylactic against aquatic pest infestations, application to the water can be done for the desire to control any aquatic pest in the water or soil in contact with the water (e.g., river bed, pond bed, shore, or other soil in direct contact with the water), or that may come into contact therewith. Also, the sulfurous acid can treat the surfaces of any water system or any surface of any object in the water to inhibit aquatic pest from attaching thereto, remove the aquatic pests from the surface (e.g., descale) or otherwise inhibit the aquatic pest from contaminating the water system. Thus, it may be desirable to apply the sulfurous acid to a water or soil contacting the water or structure confining the water as desired.
# Thus, exhaust products from burning sulfur and reaction products of the exhaust products (e.g., reaction products from reacting sulfur dioxide with water or reacting other sulfur-containing substance in the exhaust with water) and water can be used to control the aquatic pets. In one aspect, sulfuric acid is specifically not used in the methods described herein.
# Thus, introducing the exhaust products from burning sulfur that has sulfur dioxide (e.g., exhaust directly from a sulfur burn chamber) and reaction products of the exhaust products and water may reduce the calcium in the water in order to control the pests. This may include reducing the overall free calcium level, such as reducing carbonate and bicarbonate levels. In one aspect, the ability of sulfurous acid to degrade carbonates and bicarbonates may contribute to the ability of the present technology controlling pests. […] As referred to herein, the exhaust products include sulfur dioxide and possibly other sulfur-containing substances that are obtained directly from a sulfur burner that burns elemental sulfur.
# Treatment can provide clarified water from murky water having one or more of these aquatic pests.
# [1] = inoculated aquatic pond, pH about 6.0-about 6.5, no time stated
Compound,kill of clams (clams),"kill of bryozoa (bryozoa; in 48 hours, open water, pH between 6.0 and 6.5)",kill of bryozoan (bryozoa; [1]),"kill of zebra mussels (zebra mussels; in 5 days, open water, pH between 6.0 and 6.5) [%]",kill of zebra mussels (zebra mussels; [1]),"kill of Asiatic clams (Asiatic clams; in less than one month, open water, pH between 6.0 and 6.5) [%]",kill of Asiatic clams (Asiatic clams; [1]),"time until free of cyanobacteria (cyanobacteria; Daybreak reservoirs (surge pond), pH maintained between 6.8-7) [weeks]","detection of cyanobacteria after treatment (cyanobacteria; Daybreak reservoirs, untreated Jordan Canal areas still positive)",cyanobacteria in waterways downstream from the Daybreak reservoirs (cyanobacteria; downstream of treated reservoirs),"kill of cyanobacteria (cyanobacteria; pH of the treated water between 6-7, more preferably 6.8-7) [%]",time until free of anatoxin-a (anatoxin-a) [weeks],kill of non-target fish or other animals (fish or other animals),time to removal of algae (algae) [days],"effect on algae, bacteria, zebra mussel, Asian clam, apple snail, American crab, crayfish, Bryozoans (aquatic pests; in vivo)",kill rates in the aquatic pests (aquatic pests; open and contained water) [%],effectiveness in controlling aquatic pests versus sulfuric acid (aquatic pests; pH reduced to 7.1 with sulfurous acid versus pH 3.0 with sulfuric acid),"aquatic pest count (aquatic pests; preliminary testing, applied to water having aquatic pest)"
O=S(=O)(O)O [sulfuric acid],"kill the clams, but only in some cases",–,–,–,–,–,–,–,–,–,–,–,–,–,–,–,–,–
sulfurous acid,–,about 100%,about 100%,100,about 100%,100,about 100%,≤ 2,non-detect,free of cyanobacteria,100,≤ 2,no fish or other animals were determined to be killed,15,reduce,100,more effective,reduces the aquatic pest count
